Laboratory results: patent US20020068749A1, “AIDS REMEDY” (priority 1996, published 2002)
≈ marks a conversion by molar mass, not a printed value.

Legend:
KNI-272 resistant strain = assay: microbe, parasite or virus in culture; assay type: cell-based, HIV; details: Human immunodeficiency virus 1, read-out: Anti-virus activity IC50
Text: A drug resistant strain virus is a resistance strains induced in a cell culture system in vitro while maintaining infection in the presence of each medicament through generations.

[1] = test system: Ritonavir resistant strain; assay: Anti-virus activity IC50 against Ritonavir resistant strain; assay type: cell-based, HIV; details: Human immunodeficiency virus 1, read-out: Anti-virus activity IC50

With `CSC[C@H](NC(=O)COc1cccc2cnccc12)C(=O)N[C@@H](Cc1ccccc1)[C@H](O)C(=O)N1CSC[C@H]1C(=O)NC(C)(C)C` [KNI-272, (R)-N-1,1-dimethylethyl-3-[(2S,3S)-2-hydroxy-3-[(R)-2-(5-isoquinolyloxyacetyl)amino-3-methylthiopropanoyl]amino-4-phenylbutanoyl]-1,3-thiazolidine-4-carboxyamide] as the compound, how does the IC50 (KNI-272 resistant strain) read?
Its IC50 is 0.32 µg/mL (≈ 0.479 µM).

What about the IC50 [1] of the same compound?
The IC50 was 0.304 µg/mL (≈ 0.455 µM).
